The structures appear in SMILES notation. Where two headings read alike, the source gives them in different places.

IC50 and CCK-B/CCK-A data for ten compounds are collected here from patent US5716958A, “Amino acid derivative having anti-CCK activity” (Tobishi Pharmaceutical Co., Ltd., priority 1994, dated 1998).

Test [1] has as its system extracted guinea pig ileum. Briefly: Anti-CCK action in extracted guinea pig ileum (inhibition of CCK-8-induced contraction, Magnus tube). Also noted: species or system guinea pig (Hartley strain, male). The note with it: Cavia porcellus. How it is done: Anti-cholecystokinin (CCK) Action in Extracted Guinea Pig Ileum After sacrificing a male guinea pig (Hartley strain) by striking and exsanguination, a piece of extracted ileum was suspended from a Magnus tube, while applying tension of 0.5 g, containing 30 ml of Tyrode's solution (NaCl 136.9 mM, KCl 2.68 mM, CaCl2 1.8 mM, MgCl2 1.05 mM, NaH2 PO4 0.42 mM, NaHCO3 11.9 mM and glucose 5.55 mM) and ventilated with mixed O2 gas containing 5% CO2 at 37° C. Changes in contraction were recorded on smoked paper for isotonicity via a bevel. The piece of ileum was allowed to stand undisturbed for 30 minutes and then contracted by addition 1×10^-8 M CCK-8. After washing, this was repeated several times. After the contraction by CCK-8 had stabilized, the test compound was added. Contraction resulting from addition of 1×10^-8 M CCK was then measured 5 minutes later. The contraction caused by CCK-8 and the contraction caused by CCK-8 in the presence of the test compound at varying concentrations were compared, and the resulting IC50 values (concentration of test substance at which contraction caused by CCK-8 is inhibited by 50%) are shown in Table 2. The compound numbers shown in Table 2 indicate the target compounds according to the numbers of the embodiments.

For another test, the target named is T1, CCK-B (Rattus norvegicus, UniProt P30553).
T1 construct: CCK-B receptors originating in the cell membrane of rat brain cells; from tissue; host or cells: rat cerebrum membranes (male rats, Japan Laboratory Animals)
T1 sequence (P30553 1-452): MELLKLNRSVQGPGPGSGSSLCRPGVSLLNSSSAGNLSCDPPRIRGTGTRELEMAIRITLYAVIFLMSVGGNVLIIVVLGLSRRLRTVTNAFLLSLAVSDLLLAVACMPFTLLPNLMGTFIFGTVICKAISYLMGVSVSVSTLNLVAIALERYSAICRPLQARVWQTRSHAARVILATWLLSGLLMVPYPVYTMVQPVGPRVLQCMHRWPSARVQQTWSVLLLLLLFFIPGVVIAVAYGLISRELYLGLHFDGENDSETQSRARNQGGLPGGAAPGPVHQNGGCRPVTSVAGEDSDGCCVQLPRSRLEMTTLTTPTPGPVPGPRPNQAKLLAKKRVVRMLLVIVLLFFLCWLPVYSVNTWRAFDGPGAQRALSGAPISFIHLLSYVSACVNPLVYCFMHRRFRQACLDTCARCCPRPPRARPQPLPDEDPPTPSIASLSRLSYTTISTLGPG
Briefly: Central receptor (CCK-B) binding experiment, [^3 H]-CCK-8 binding inhibition. The conditions noted are these: rat cerebrum homogenate, 0.2 nM [^3 H]-CCK-8, 60 minutes at 25° C. How it is done:
(§1) Peripheral Receptor (CCK-A) and Central Receptor (CCK-B) Binding Experiment
(§2) The pancreas and cerebrum of male rats (Japan Laboratory Animals), which were sacrificed by decapitation and having body weights of 250-300 g, were extracted and immersed in cold Hepes buffer. After suspending these tissues using a Potter homogenizer, the suspension was centrifuged for 10 minutes at 48,000×g. The resulting residue was again suspended by addition of cold Hepes buffer and centrifuged for 10 minutes at 48,000×g. The resulting residue was transferred to cold incubation buffer.
(§3) A 1 ml aliquot of the homogenate was incubated for 60 minutes at 25° C. in the presence of 0.2 nM [^3 H]-CCK-8 and the test compound, in the presence of vehicle only (for measurement of 100% binding), or in the presence of 1 μM cold CCK-8 (for measurement of non-specific binding). Next, the reaction solution was promptly suction filtered using a Whatman glass GF/B filter immersed in Hepes buffer followed by washing the filter with cold Hepes buffer. Next, the glass filter was placed in Aquasol-2 followed by assay of radioactivity with a liquid scintillation counter.
(§4) The compound numbers shown in Table 3 indicate the target compounds according to the number of the embodiment.

Another test has as its target T2, CCK-A (Rattus norvegicus, UniProt P30551).
T2 construct: CCK-A receptors prepared from the cell membranes of rat pancreas; from tissue; host or cells: rat pancreas membranes (male rats, Japan Laboratory Animals)
T2 sequence (P30551 1-444): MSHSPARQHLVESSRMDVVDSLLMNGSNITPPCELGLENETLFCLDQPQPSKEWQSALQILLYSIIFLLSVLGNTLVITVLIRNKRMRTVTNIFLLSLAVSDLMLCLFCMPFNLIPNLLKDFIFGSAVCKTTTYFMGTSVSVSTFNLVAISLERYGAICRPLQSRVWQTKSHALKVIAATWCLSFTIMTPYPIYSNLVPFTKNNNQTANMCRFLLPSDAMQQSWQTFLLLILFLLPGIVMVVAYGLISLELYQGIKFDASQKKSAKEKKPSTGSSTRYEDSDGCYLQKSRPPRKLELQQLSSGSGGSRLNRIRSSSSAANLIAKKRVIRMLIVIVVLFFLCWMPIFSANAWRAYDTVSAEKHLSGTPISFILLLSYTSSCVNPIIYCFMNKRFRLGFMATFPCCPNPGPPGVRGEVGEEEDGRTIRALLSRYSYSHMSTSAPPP
Briefly: Peripheral receptor (CCK-A) binding experiment, [^3 H]-CCK-8 binding inhibition. The note with it: for CCK-B/CCK-A: ratio of IC50 values CCK-B/CCK-A (selectivity for CCK-A), 60 min. The procedure: as §1, §2, §3, §4

The mark [2] stands for this setting: contraction by 1×10^-8 M CCK-8, test compound added 5 minutes before, extracted ileum, 37° C, read-out: Active IC50.
Setting [3] is: rat pancreas homogenate, 0.2 nM [^3 H]-CCK-8, 60 minutes at 25° C, read-out: CCK-A IC50.
[4] abbreviates: rat pancreas cell membranes, read-out: activity in binding experiment on CCK-A receptors prepared from the cell membranes of rat pancreas.

Regarding `O=C(N[C@@H](CSc1ncccc1C(=O)O)C(=O)N1CCN(C(c2ccccn2)c2ccccn2)CC1)c1cc2ccccc2[nH]1` [Compound 8-5, (R)-4-bis(2-pyridyl)methyl-1-[3-(3-carboxypyridin-2-yl)thio-2-(indol-2-yl)carbonylamino]propionylpiperazine], the figures for the IC50 (in test [1] (setting [2]); at CCK-B; at CCK-A (setting [3])) were 350 nM, 57000 nM and 50 nM, respectively. Also, the CCK-B/CCK-A at CCK-A was determined as 1140.
Turning to `O=C(N[C@@H](CSc1ncccc1C(=O)O)C(=O)N1CCN(C(c2ccc(F)cc2)c2ccc(F)cc2)CC1)c1cc2ccccc2[nH]1` [Compound 10-4, (R)-4-bis(4-fluorophenyl)methyl-1-[3-(3-carboxypyridin-2-yl)thio-2-(indol-2-yl)carbonylamino]propionylpiperazine], the IC50 came out at 48 nM in test [1] (setting [2]), 36000 nM on CCK-B, 6 nM on CCK-A (setting [4]) and 6 nM on CCK-A (setting [3]). Besides, the CCK-B/CCK-A on CCK-A came to 6000.
In the case of `O=C(N[C@@H](CSc1ncccc1C(=O)O)C(=O)N1CCN(C(c2ccccc2)c2ccccc2)CC1)c1cc2cc(O)ccc2[nH]1` [Compound 12-2, (R)-1-[3-(3-carboxypyridin-2-yl)thio-2-(5-hydroxyindol-2-yl)carbonylamino]propionyl-4-diphenylmethylpiperazine], the IC50 in test [1] (setting [2]) was determined as 27 nM; on CCK-B it was 42000 nM; on CCK-A (setting [4]), 5 nM; at CCK-A (setting [3]) it was 5 nM. For the same compound, on CCK-A, the CCK-B/CCK-A is reported as 8400.
On to `CCCCC(CCCC)N1CCN(C(=O)[C@H](CSc2ncccc2C(=O)O)NC(=O)c2cc3ccccc3[nH]2)CC1` [Compound 14-5, (R)-1-[3-(3-carboxypyridin-2-yl)thio-2-(indol-2-yl)carbonylamino]propionyl-4-(1-butylpentyl)piperazine], for which the figures for the IC50 (in test [1] (setting [2]); at CCK-B; at CCK-A (setting [3])) were 260 nM, 100000 nM and 170 nM, respectively. The CCK-B/CCK-A at CCK-A was found to be 588.
Taken in the same sequence, the figures for `CC(C)C(C(C)C)N1CCN(C(=O)[C@H](CSc2ncccc2C(=O)O)NC(=O)c2cc3ccccc3[nH]2)CC1` [Compound 15-4, (R)-1-[3-(3-carboxypyridin-2-yl)thio-2-(indol-2-yl)carbonylamino]propionyl-4-diisopropylmethylpiperazine] were 120 nM, 8800 nM, 30 nM and 293.
In the case of `O=C(N[C@@H](CSc1nccnc1C(=O)O)C(=O)N1CCN(C(c2ccccc2)c2ccccc2)CC1)c1cc2ccccc2[nH]1` [Compound 17-3, (R)-1-[3-(3-carboxypyrazin-2-yl)thio-2-(indol-2-yl)carbonylamino)propionyl-4-diphenylmethylpiperazine], the IC50 in test [1] (extracted guinea pig ileum, read-out: IC50 with respect to the extracted guinea pig ileum (in vitro)) turned out to be 7.2 nM; in test [1] (setting [2]) it was 7.2 nM; on CCK-B, 13000 nM; on CCK-A (setting [3]), 560 nM. The CCK-B/CCK-A at CCK-A came to 23.
For the compound `O=C(N[C@@H](CSc1ncccc1P(=O)(O)O)C(=O)N1CCN(C(c2ccccc2)c2ccccc2)CC1)c1cc2ccccc2[nH]1` [Compound 22-4, (R)-4-diphenylmethyl-1-[3-(3-phosphonopyridin-2-yl)thio-2-(indol-2-yl)carbonylamino]propionylpiperazine], the values for the IC50 (in test [1] (setting [2]); at CCK-B; at CCK-A (setting [3])) were 36 nM, 56000 nM and 20 nM, respectively. Further, at CCK-A, the CCK-B/CCK-A is 2800.
Taken in the same sequence, the figures for `O=C(N[C@@H](CCn1nncc1C(=O)O)C(=O)N1CCN(C(c2ccccc2)c2ccccc2)CC1)c1cc2ccccc2[nH]1` [Compound 24-3, (S)-1-[4-(5-carboxy-1,2,3-triazol-1-yl)-2-(indol-2-yl)carbonylamino]butyryl-4-diphenylmethylpiperazine] were 120 nM, 69000 nM, 37 nM and 1865.
Taken in the same sequence, the figures for `O=C(N[C@@H](CCc1ocnc1C(=O)O)C(=O)N1CCN(C(c2ccccc2)c2ccccc2)CC1)c1cc2ccccc2[nH]1` [Compound 26-5, (S)-1-[4-(4-carboxyoxazol-5-yl)-2-(indol-2-yl)carbonylamino]butyryl-4-diphenylmethylpiperazine] were 17 nM, 10000 nM, 16 nM and 625.
Taken in the same sequence, the figures for `O=C(N[C@@H](Cc1ocnc1C(=O)O)C(=O)N1CCN(C(c2ccccc2)c2ccccc2)CC1)c1cc2ccccc2[nH]1` [Compound 27-5, (S)-1-[3-(4-carboxyoxazol-5-yl)-2-(indol-2-yl)carbonylamino]propionyl-4-diphenylmethylpiperazine] were 190 nM, 9600 nM, 180 nM and 53.
